Measurements: US20180222953A1, “SARCOMERE BIOSENSOR AND METHODS OF USE THEREOF” (REGENTS OF THE UNIVERSITY OF MINNESOTA, priority 2017, published 2018)
Entries after “also recorded” stand apart in the source; their conditions may differ.

What was measured:
[1] = test system: isolated adult cardiac myocytes; assay: Sarcomere length (SL) shortening in isolated Sarcometer Tg cardiac myocytes before and after treatment; type: cell-based, mouse; details: 0.2 Hz stimulation; for SL contractile amplitude: 37° C.
Experimental: Mice were injected with 0.25 cc 10,000U/ml heparin (McKesson cat#NDC 63739-964-25) and anesthetized 10 minutes later with 0.15 cc 50 mg/ml sodium pentobarbital (Vortech Pharmaceuticals). The heart was rapidly excised and placed in ice cold Krebs-Henseleit buffer (Sigma cat#K3753) modified with 25 mM HEPES (Sigma cat#H4034), 10 mM 2,3-Butanedione monoxime (Sigma cat#B0753), 30 mM Taurine (Sigma cat#T0625) and the aorta was cannulated. The mounted heart was placed on a perfusion system at 37° C. The heart was perfused with calcium free modified Krebs-Henseleit buffer with 2 mg/ml crudely purified collagenase for 10 minutes. The heart was then removed from the cannula, the atria were removed and the ventricles were dissected into pieces approximately 2 mm in diameter. The dissected ventricular tissue was then gently mechanically triturated in collagenase to liberate isolated myocytes. After brief low-speed centrifugation, isolated myocytes were resuspended in nominal calcium and 0.025 mg/ml bovine serum albumin (HyClone cat#SH30574.03) in a modified Kreb-Henseleit buffer. After the final trituration step, calcium was added back to the buffer step wise until reaching a final concentration of 2 mM CaCl2. Myocytes were plated on laminin-coated (ThermoFisher cat#23017015) glass coverslips in M199 media (Gibco cat#31100-035) containing 5% fetal bovine serum (HyClone cat#SH30071.03) and incubated for one hour at 37° C. with 5% CO2. After the one hour incubation, the media was changed to serum free M199 media and the myocytes were used for experiments within 5 hours.
(§1) For real-time simultaneous sarcomere length and biosensor measurements, a modified Ionoptix Calcium and Contractility system was used. Sarcomere length changes were detected at 240 Hz sampling rate and fluorescence measurements were detected at 1000 Hz sampling rate with two photomultipler tubes. Measurements were made at 37° C. and a stimulation frequency of 0.2 Hz unless specified otherwise. For biosensor measurements, a Xenon arc lamp was used and filtered with a 500/10 nm hard-coated bandpass filter before entering the microscope turret. The microscope turret featured a 505 dichroic long pass filter. Fluorescent light from the sample was shunted through microscope side port where it was split by a dichroic mirror with light above 650 nm going towards the Myocam for sarcomere length detection and light below 650 nm being further shunted to an additional filter cube. In this final filter cube, a 565 nm dichroic long pass mirror split the light again. Light with wavelengths below 565 nm corresponding to the Clover protein was further cleaned up by a 534/20 nm hard-coated bandpass filter before reaching the photomultiplier tuber and light with wavelengths above 565 nm was further cleaned up by a 592/43 nm hard-coated bandpass filter before reaching the photomultiplier tube. For calcium fluorescence measurements, the mouse myocytes were pre-loaded for 20 minutes in M199 solution containing 1 μM Fura-2 AM (ThermoFisher Cat #F1221), and a ten minute period was allowed for deesterification. For calcium fluorescence measurements the 360/380 nm ratio was determined. For each myocyte, several contractions were measured, averaged, and analyzed using the IonWizard software.
Eight to twelve week old mice of both sexes were injected with 0.25 cc 10,000U/ml heparin and anesthetized 10 minutes later with 0.15 cc 50 mg/ml sodium pentobarbital. The heart was rapidly excised and placed in ice cold Krebs-Henseleit buffer modified with 25 mM HEPES, 10 mM 2,3-Butanedione monoxime, 30 mM Taurine and the aorta was cannulated. The mounted heart was placed on a perfusion system at 37° C. The heart was perfused with calcium free modified Krebs-Henseleit buffer with 2 mg/ml crudely purified collagenase for 10 minutes. The heart was then removed from the cannula, the atria were removed and the ventricles were dissected into pieces approximately 2 mm in diameter. […]

[2] = test system: sarcomere activation (Sarcometer cTnC biosensor) in live cardiac myocytes; assay: Sarcometer Clover fluorescence (FRET) transient in live cardiac myocytes before and after treatment; type: cell-based, mouse; details: 0.2 Hz stimulation; for Sarcometer kinetics / Clover peak fluorescence intensity (Sarcometer amplitude): 37° C.
Experimental: as §1
Eight to twelve week old mice of both sexes were injected with 0.25 cc 10,000U/ml heparin and anesthetized 10 minutes later with 0.15 cc 50 mg/ml sodium pentobarbital. The heart was rapidly excised and placed in ice cold Krebs-Henseleit buffer modified with 25 mM HEPES, 10 mM 2,3-Butanedione monoxime, 30 mM Taurine and the aorta was cannulated. The mounted heart was placed on a perfusion system at 37° C. The heart was perfused with calcium free modified Krebs-Henseleit buffer with 2 mg/ml crudely purified collagenase for 10 minutes. The heart was then removed from the cannula, the atria were removed and the ventricles were dissected into pieces approximately 2 mm in diameter. The dissected ventricular tissue was then gently mechanically triturated in collagenase to liberate isolated myocytes. After brief low-speed centrifugation, isolated myocytes were resuspended in nominal calcium and 0.025 mg/ml bovine serum albumin in a modified Kreb-Henseleit buffer. After the final trituration step, calcium was added back to the buffer step wise until reaching a final concentration of 2 mM CaCl2. Myocytes were plated on laminin-coated (ThermoFisher cat#23017015) glass coverslips in M199 media (Gibco cat#31100-035) containing 5% fetal bovine serum and incubated for one hour at 37° C. with 5% CO2. After the one hour incubation, the media was changed to serum free M199 media and the myocytes were used for experiments within 5 hours.
For real-time simultaneous sarcomere length and Sarcometer biosensor measurements, a modified Ionoptix Calcium and Contractility system was used. Sarcomere length changes were detected at 240 Hz sampling rate and fluorescence measurements were detected at 1000 Hz sampling rate with two photomultipler tubes (FIG. 9). Measurements were made at 37° C. and a stimulation frequency of 0.2 Hz unless specified otherwise. For Sarcometer measurements, a Xenon arc lamp was used and filtered with a 500/10 nm hard-coated bandpass filter before entering the microscope turret. The microscope turret featured a 505 dichroic long pass filter. […]

[3] = test system: cardiac myocyte calcium transients; assay: Fura-2 AM calcium transients in single cardiac myocytes; type: cell-based, mouse; details: 10 μM, n=4 pairs
Experimental: For real-time simultaneous sarcomere length and biosensor measurements, a modified Ionoptix Calcium and Contractility system was used. Sarcomere length changes were detected at 240 Hz sampling rate and fluorescence measurements were detected at 1000 Hz sampling rate with two photomultipler tubes. Measurements were made at 37° C. and a stimulation frequency of 0.2 Hz unless specified otherwise. For biosensor measurements, a Xenon arc lamp was used and filtered with a 500/10 nm hard-coated bandpass filter before entering the microscope turret. The microscope turret featured a 505 dichroic long pass filter. […] For calcium fluorescence measurements, the mouse myocytes were pre-loaded for 20 minutes in M199 solution containing 1 μM Fura-2 AM (ThermoFisher Cat #F1221), and a ten minute period was allowed for deesterification. For calcium fluorescence measurements the 360/380 nm ratio was determined. For each myocyte, several contractions were measured, averaged, and analyzed using the IonWizard software.
For real-time simultaneous sarcomere length and Sarcometer biosensor measurements, a modified Ionoptix Calcium and Contractility system was used. Sarcomere length changes were detected at 240 Hz sampling rate and fluorescence measurements were detected at 1000 Hz sampling rate with two photomultipler tubes (FIG. 9). […] For calcium fluorescence measurements the 360/380 nm ratio was determined. […]

[4] = molecular target: TnC hydrophobic patch (Homo sapiens, UniProt P63316); details: binds directly to the TnC hydrophobic patch; Oleszczuk et al. 2010; cited from earlier work
[5] = 10 μM, before vs after treatment
[6] = 10 μM, before vs after treatment, listed as PNB

CC(C)NCC(O)c1ccc(O)c(O)c1 (centres unmarked) [isoproterenol]
SL shortening amplitude ([1]; 50 nM, 30° C., before vs after treatment, n=34 pairs): increase myocyte contraction; also recorded: increased shortening amplitude | sarcomere dynamics kinetics (SL relaxation) ([1]; 50 nM, 30° C., n=34 pairs): speed SL relaxation; also recorded: faster kinetics | Clover fluorescence kinetics (transient decay rate) ([2]; 50 nM, 30° C., n=24 pairs): significantly faster; also recorded: faster kinetics | peak Clover fluorescence intensity ([2]; 50 nM, 30° C., n=24 pairs): increased peak Clover fluorescence intensity

COC(=O)N1CCN(Cc2cccc(NC(=O)Nc3ccc(C)nc3)c2F)CC1 [Omecamtiv mecarbil]
SL contractile amplitude ([1]; 250 nM, n=14 pairs): increased contractile amplitude | SL contractile amplitude ([1]; 250 nM, n=14 pairs, listed as OM): significant increase SL amplitude | Sarcometer kinetics ([2]; 250 nM): no effect | Clover peak fluorescence intensity (Sarcometer amplitude) ([2]; 250 nM, n=17 pairs): no difference in peak fluorescence intensity | Clover peak fluorescence intensity (Sarcometer amplitude) ([2]; 250 nM, n=17 pairs, listed as OM): no effect

NCCCCCCNS(=O)(=O)c1cccc2c(Cl)cccc12 [W7, N-aminohexyl-5-chloro-1-naphthalenesulfonamide]
SL contractile amplitude [1, 5]: reduced SL amplitude; also recorded: decreased contractile amplitude | Clover peak fluorescence intensity (Sarcometer amplitude) [2, 5]: significantly depressed; also recorded: decreased peak fluorescence intensity | calcium transient amplitude or kinetics [3]: unaltered; also recorded: no changes in calcium amplitude or kinetics | decrease of TnI switch peptide binding [4]: 13 fold

Cc1ccc2c(c1)C(=O)[C@]1(O)CCN(c3ccc([N+](=O)[O-])cc3)C1=N2 [para-Nitroblebbistatin]
SL contractile amplitude [1, 5]: decreased contractile amplitude | SL contractile amplitude [1, 6]: effectively blocked contraction | Sarcometer kinetics ([2]; 10 μM): no significant effect | Clover peak fluorescence intensity (Sarcometer amplitude) [2, 5]: no difference in peak fluorescence intensity | Clover peak fluorescence intensity (Sarcometer amplitude) [2, 6]: no significant effect

COc1ccc(-c2nc3ccc(C4=NNC(=O)CC4C)cc3[nH]2)cc1 (centres unmarked) [Pimobendan]
SL contractile amplitude [1, 5]: increased SL amplitude; also recorded: increased contractile amplitude | Clover peak fluorescence intensity (Sarcometer amplitude) [2, 5]: significant increase in Clover signal amplitude; also recorded: increased peak fluorescence intensity
